Laboratory results as given in patent US9072729B2, “Method for treating fibrosis and cancer with imidazolium and imidazolinium compounds” (Agency for Science, Technology and Research, priority 2008, dated 2015).

Assays:
IL-6 = assay: Real-time RT-PCR of IL-6 mRNA in HSC T6 cells; type: cell-based, rat; settings: for inhibition of IL-6 transcription: 48 h
Protocol: FIG. 10. DBZIM and TDBZIM suppressed IL-6 mRNA. HSC T6 cells were incubated with DBZIM (1, 10, 100 and 300 μM) and (b) TDBZIM (1, 10 and 100 μM) for 48 h for the dosage-dependent study, and (c) with DBZIM (100 μM) and TDBZIM (100 μM) for 8, 24 and 48 h for the time-dependent study. The expression level of IL-6 mRNA was quantified with real-time RT-PCR. The data were presented as mean and SEM, N=6, *^bP<0.01, *^cP<0.005, and *^dP<0.0005, when compared to the vehicle control.
Total RNA was isolated using NucleoSpin RNAII isolation kit (Nacherey & Nagel, Germany), and quantified by ND-100 spectrophotometer (Nanodrop Technologies, DE, USA). The details of real-time RT-PCR were reported elsewhere (Zhang et al. 2006). Briefly, it was a two-step real-time RT-PCR using Taqman chemistry. Total RNA was first reverse transcribed to cDNA, and real-time PCR was run and detected in ABI 7500 Fast Real-Time PCR System (Applied Biosystems, CA, USA). Primers and probes for rat GFAP, SMAA, collagen Ia1, fibronectin, TGF-β1, TGF-β receptor I (TGFβ RI) and IL-6 were ordered from Taqman's assay-on-demand database. Rat β-actin was used as normalization gene, and its expression level was constant (CT difference was <±0.5) throughout the experimental settings in this study. Relative quantification of target mRNA was calculated using comparative threshold cycle method (ΔΔCT) as described in User Bulletin #2 (ABI Prism 7700 Sequence Detection System). Relative quantification was given by 2^−ΔΔCT to express the up-regulation or down regulation of the target gene under the treatments compared to the control.

[1] = test system: liver fibrosis induced by bile duct ligation (BDL); assay: Liver fibrosis in mice induced by bile duct ligation (BDL); type: in vivo, mouse; settings: for liver fibrosis (Sirius Red collagen): drinking water, 4 weeks, DBZIM 10 mg/L, DPIM 1 g/L
Protocol: FIG. 15 Effect of DBZIM and DPIM on liver fibrosis in mice. DBZIM was tested on mice induced by (a) liver toxin thioacetamide (TAA) or by (b) bile duct ligation (BDL). DPIM was also tested on mice induced by TAA (data not shown)) or by (c) bile duct ligation (BDL).
FIG. 16. Representative of images of Sirius red staining in liver sections from different DPIM compound treated group mice. Each treated group had 6-8 mice, except for 500 mg/l treated group, which had only one mouse in the group. Red staining areas represent collagen deposits. (A) sham operated, (B) sham operated+DPIM 1 g/l for 4 weeks, (C) BDL for 4 weeks, (D) BDL 4 weeks+500 mg/l DPIM treatment, (E) BDL 4 weeks+750 mg/l DPIM treatment, and (F) BDL 4 weeks+1 g/l DPIM treatment.
FIG. 17. Percentage of Sirius red staining areas. Sirius red staining areas from different treatment group mice were quantified with Image J software, at least 6 different areas from left and middle lobes of liver of each mouse were covered. *P<0.05, BDL vs. DPIM treated groups; # P<0.05, 750 mg/l vs. 1 g/l treated groups.
FIG. 18. Liver weights of different treatment groups. Each group consisted of 6-8 mice which were 10-12 weeks old at the start of surgery procedure. *P<0.05, sham operated control group vs: BDL 4 weeks, **P<0.05, DPIM compound treated groups vs; BDL weeks group, # P<0.05, 750 mg/l DPIM treated group vs. 1 g/l DPIM treated group.
FIG. 19. Representative images of H&E staining of liver sections. (A) control group; (B) BDL 4 weeks group; and (C) BDL 4 weeks+DPIM 1 g/l treatment group.
FIG. 20. Quantitative real-time PCR for collagen 1a1 mRNA. DPIM reduced collagen 1a1 mRNA.
For the liver toxin thioacetamide (TAA) model, TAA was given by i.p. injection at 200 mg/kg body weight, 3 times per week, for 12 weeks, to induce hepatic fibrosis in mice. For the bile duct ligation model (BDL), adult mice were anesthetized with Ketamine (150 mg/kg)/Xylazine (10 mg/kg) via i.p. injection. An abdominal incision at the midline is made to expose the common bile conduct, which was then ligated using 5-0 silk suture. In the control animal, the bile duct is exposed, but not ligated. DBZIM or DPIM was provided to the mice in drinking water at concentrations from 1 to 1000 mg/liter. The collagen content in the fibrotic liver was assessed by the Sirius Red staining of the liver tissue sections.
Male FVB/N mice (8-10 weeks old) housed in a specific pathogen-free (SFP) facility on a 12 hour dark-light cycle and with free access to water and diet were used in the study. The animal experiment protocol was approved by the institutional animal care and use committee (IACUC), the Biomedical Research Council (BMRC) of Singapore.
Cholestatic fibrosis was induced by BDL, briefly, mice were anesthetized with intraperitoneal injection of ketamine (150 mg/kg) and xylazine (10 mg/kg), after midline laparotomy, the common bile duct was ligated twice with 5-0 silk suture. The sham operation was performed similarly except that bile duct was not double ligated. The experimental mice were divided into four groups: 1) control only (sham operated, but no BDL); 2) control+DPIM; 3) BDL only; 4) BDL+DPIM. Each group consists of 6-8 mice. DPIM compound for treatment was supplied in the drinking water at three concentrations, 500 mg/l, 750 mg/l, 1 g/l, respectively. The drinking water containing DPIM was changed weekly. It was observed that on average each mouse (normal or operated) drank approximately 3-4 ml plain or DPIM-containing water every day. […] The compound treatment was started on the third day after animals recovered from the BDL procedure. After 4 weeks, livers were removed from mice for fixation 10% formalin, subsequently embedded in paraffin.
For consistency, paraffin-sections prepared from the left and median lobes were stained with Sirius-Red to visualize the collagen content. […]

Compound: 1,3,5-tris(4-methyl-imidazolium)-linked cyclophane.3Br [TDBZIM]
- inhibition of IL-6 transcription (IL-6; 1 μM): 37%
- inhibition of IL-6 transcription (IL-6; 10 μM): 55%
- inhibition of IL-6 mRNA expression (IL-6; 100 μM, 24 h): 52%
- inhibition of IL-6 transcription (IL-6; 100 μM): 80%

Compound: [Br-].c1ccc(Cn2cc[n+](Cc3ccccc3)c2)cc1 [DBZIM, 1,3-bisbenzylimidazolium bromide]
- inhibition of IL-6 transcription (IL-6; 1 μM): 37%
- inhibition of IL-6 transcription (IL-6; 10 μM): 46%
- inhibition of IL-6 transcription (IL-6; 100 μM): 53%
- suppression of IL-6 mRNA (IL-6; 100 μM, shorter treatment than 48 h (8, 24 h)): did not show statistically significant suppression
- inhibition of IL-6 transcription (IL-6; 300 μM): 59%
- liver fibrosis (Sirius Red collagen) ([1]; BDL model): attenuated fibrosis

Compound: CC(C)n1cc[n+](C(C)C)c1.F[B-](F)(F)F [DPIM, 1,3-diisopropylimidazolium tetrafluoroborate]
- liver weight ([1]; BDL 4 weeks + 750 mg/l (BDL alone 2.74±0.51 g)): 1.97 ± 0.44 g
- Sirius-Red positive areas (percentage of staining areas; BDL alone 8.69) ([1]; BDL 4 weeks + 750 mg/l in drinking water): 4.33%
- proliferative cells around the sinusoidal area (H&E staining) ([1]; BDL 4 weeks + 1 g/l): reduced the number of proliferative cells
- liver weight ([1]; BDL 4 weeks + 1 g/l (BDL alone 2.74±0.51 g)): 1.65 ± 0.20 g
- Sirius-Red positive areas (percentage of staining areas; BDL alone 8.69) ([1]; BDL 4 weeks + 1 g/l in drinking water): 3.42%
- liver collagen 1a1 mRNA ([1]; BDL model): reduced the collagen 1a1 mRNA
- liver fibrosis (Sirius Red collagen) ([1]; BDL model): displayed its effect
- collagen build-up in sham mice ([1]; sham operated + 1 g/l for 4 weeks): did not induce any significant build-up of collagen
- liver weight ([1]; sham operated + DPIM for 4 weeks (sham 1.50±0.19 g)): 1.56 ± 0.08 g
